“And” between values parts separate entries of the source, which are not always exact repeats. Equal entries are not always repeated. “Also recorded” adds a separate entry of the source.
Tests used:
[1] = system: Leishmania (L.) amazonensis promastigotes; assay: Anti-promastigote assay (MTT); assay type: cell-based
Experimental: Promastigotes from Leishmania (L.) amazonensis (MHOM/BR/26361) were obtained in NNN (Neal, Novy and Nicolle) medium from the Instituto Evandro Chagas and subsequently maintained in RPMI medium supplemented with 10% heat-inactivated fetal bovine serum (FBS) at 25 °C.
Leishmania (L.) amazonensis promastigotes (10^6 parasites/mL) were seeded in 24-well plates with RPMI medium without phenol, the medium was supplemented with 10% FBS, and the cells were then treated with different concentrations of (+)-phyllanthidine (10, 20, 50, 100 and 200 µg/mL). The cultures were incubated at 25 °C for 4 days without medium replacement. Every 24 h, aliquots were harvested and promastigotes were incubated with 20 µL of MTT (2 µg/mL) for 4 h. Then, 20 µL of DMSO was added to the wells, and the plate was allowed to shake for 30 min for complete solubilization. One known anti-leishmanial drug (Amphotericin B—0.5 µg/mL) was used as a positive control.

[2] = system: Leishmania (L.) amazonensis amastigotes; assay: Anti-amastigote assay in infected peritoneal macrophages; assay type: cell-based; settings: for parasite (amastigote) reduction: infected macrophages, vs untreated cells
Experimental: (§1) Macrophages were obtained from the peritoneal cavity of male mouse BALB/c (Mus musculus), and the animals were sacrificed in a CO2 chamber (Insight®). The material was harvested with Hank’s solution, concentrated by centrifugation at 4 °C, cultured in a 24-well plate and incubated in an atmosphere containing 5% CO2 at 37 °C for 1 h. After that, non-adherent cells were washed with DMEM and incubated for 24 h with DMEM medium supplemented with 10% FBS. The experimental protocol was approved by the Committee on the Ethics of Animal Experiments (CEPAE, grant number 046-2015) of Universidade Federal do Pará.
Adherent peritoneal macrophages were infected with Leishmania (L.) amazonensis promastigotes (stationary growth phase) at a parasite/macrophage ratio of 10:1 and incubated for 3 h at 37 °C and 5% CO2. After 3 h, free parasites were removed by washing with PBS pH 7.2, and the cultures were treated with 50 and 100 µg/mL (+)-phyllanthidine for 48 h post infection, without replacing the culture medium. The cells were washed with PBS pH 7.2, fixed with methanol and stained with Giemsa. The number of parasites was determined by examining three cover slips for each treatment. At least 100 infected macrophages were counted, and the results were expressed as the survival percentage, in comparison with controls. Amphotericin B (0.5 µg/mL) was used as a positive control. The selectivity index (SI) was calculated as the ratio between the cytotoxicity and antiparasitic activity against intracellular amastigotes.

[3] = Cytotoxicity assay of host cells (MTT); assay type: cell-based, mouse BALB/c (Mus musculus); settings: male, BALB/c, mouse, peritoneal macrophages
Experimental: as §1
(§2) MTT is a tetrazolium salt that is converted into blue formazan crystals that are insoluble in water after cleavage by mitochondrial dehydrogenases, which causes them to accumulate in viable cells. The procedure was performed according to Fotakis and Timbrell (2006), with some modifications. Macrophages treated with 10, 20, 50, 100 and 200 µg/mL of (+)-phyllanthidine for 48 h and untreated cells were incubated with MTT (0.5 mg/mL) dissolved in phosphate-buffered saline (PBS), pH 7.2 for 3 h in a humidified atmosphere containing 5% CO2 at 37 °C. […] The absorbance of each solution was recorded at an optical density (OD) of 570 nm using a spectrophotometer (Bio-Rad Model 450 Microplate Reader). The assay specificity was determined by using non-viable cells treated with 10% formaldehyde in PBS. […]

peritoneal macrophages = assay: Cytotoxicity assay of host cells (MTT); assay type: cell-based, mouse BALB/c (Mus musculus); settings: 10-200 µg/mL, 48 h
Experimental: as §1, §2

[4] = system: Leishmania (L.) amazonensis promastigotes; assay: Ultrastructural assay (SEM and TEM); assay type: cell-based
Experimental: Scanning Electron Microscopy (SEM): Promastigotes were treated with 50 and 100 µg/mL of (+)-phyllanthidine for 4 days, and they were fixed with paraformaldehyde (4%) and glutaraldehyde (2.5%) in cacodylate buffer (0.1 M) for one hour. The cells were post-fixed in osmium tetroxide (1%), dehydrated in graded ethanol, brought to their critical point with CO2, coated with gold and analyzed in a Zeiss LEO 1450VP SEM (Göttingen, Germany).
Transmission Electron Microscopy (TEM): Promastigotes treated with 50 and 100 µg/mL (+)-phyllanthidine for 4 days were fixed with glutaraldehyde (2.5%) and paraformaldehyde (4%) in cacodylate buffer (0.1 M) for one hour. The parasites were post-fixed in an osmium tetroxide solution (1%) and ferrocyanide (0.8%), dehydrated in graded acetone and embedded in epoxy resin. Ultrathin sections were obtained, stained with uranyl acetate/lead citrate and examined with a Zeiss 906E TEM (Göttingen, Germany).

L. major-infected cell = system: L. major-infected cell; set-up: method as in PMID 16143535; settings: compared with non-infected conditions; cited from earlier work
[5] = system: L. (V.) peruviana promastigote forms; set-up: method as in PMID 19489596; settings: cited from earlier work
[6] = system: L. (V) braziliensis promastigote forms; set-up: method as in PMID 19489596; settings: cited from earlier work
L. mexicana = system: L. mexicana; set-up: method as in doi:10.1080/13880200600878361; settings: cited from earlier work
Leishmania amazonensis = system: Leishmania amazonensis; set-up: method as in PMID 19748254; settings: cited from earlier work
L. braziliensis = system: L. braziliensis; set-up: method as in PMID 19748254; settings: cited from earlier work
[7] = system: Leishmania infected-macrophages; set-up: method as in PMID 18164321; settings: 250 μM; cited from earlier work
[8] = system: L. (L.) amazonensis promastigote; settings: 72 h of treatment; cited from earlier work
[9] = system: L. (L.) amazonensis amastigote form; set-up: method as in PMID 20661748; settings: 79 μM, 72 h; cited from earlier work

Question: With O=C1C=C2C=CC3CC2(O1)C1CCCCN1O3 (single isomer, unassigned; (+)) [(+)-phyllanthidine] as the compound, how does the IC50 ([1]; Leishmania, 96 h, 96 h of treatment) read?
Answer: 82.4 µg/mL and 353 µM

Question: And the inhibition at 100 µg/mL ([1]; Leishmania, 100 µg/mL, 96 h of treatment, read-out: inhibition of promastigote growth)?
Answer: 67.7%

Question: And the “parasite (amastigote) reduction” value ([2]; 50 μg/mL, 48 h)?
Answer: 75.5%

Question: And the “parasite (amastigote) reduction” value ([2]; 100 μg/mL, 48 h)?
Answer: 83.96%

Question: What about the IC50 ([2]; Leishmania, Peritoneal macrophage, 48 h of treatment) of the same compound?
Answer: 49.1 µg/mL and 210 µM

Question: And the “selectivity index (SI)” value ([2]; ratio between cytotoxicity (macrophages) and activity against intracellular amastigotes)?
Answer: 25.08

Question: And the CC50 at 48 h [3]?
Answer: > 200 µg/mL

Question: What about the “cytotoxic effect on macrophages” value (peritoneal macrophages) of the same compound?
Answer: no cytotoxic effects on macrophages; also recorded: No cytotoxic effect was detected

Question: What about the “promastigote ultrastructural changes (TEM)” value ([4]; 50 µg/mL, 96 h) of the same compound?
Answer: kinetoplast swelling

Question: And the “promastigote ultrastructural changes (TEM)” value ([4]; 100 µg/mL)?
Answer: increase in the number of acidocalcisome-like structures

Question: What does the source list for C[C@@H]1[C@H](O)[C@@H](C)/C=C/C=C/C=C/C=C/C=C/C=C/C=C/[C@H](O[C@@H]2O[C@H](C)[C@@H](O)[C@H](N)[C@@H]2O)C[C@@H]2O[C@](O)(C[C@@H](O)C[C@@H](O)[C@H](O)CC[C@@H](O)C[C@@H](O)CC(=O)O[C@H]1C)C[C@H](O)[C@H]2C(=O)O [Amphotericin B, reference compound]?
Answer: reduction of promastigotes (positive control) ([1]; 0.5 μg/mL (0.54 µM), 96 h): 100%; amastigote reduction (positive control) ([2]; 0.5 µg/mL (0.54 µM), 48 h): 90.42%

Question: Which “iNOS and cytokine mRNA levels” value (L. major-infected cell) does the source give for O=C(O[C@@H]1O[C@@H]2COC(=O)c3cc(O)c(O)c(O)c3-c3c(cc(O)c(O)c3O)C(=O)O[C@H]([C@H]1O)[C@@H]2O)c1cc(O)c(O)c(O)c1 [Corilagin, corilagin] here?
Answer: capable of enhancing the iNOS and cytokine mRNA levels

Question: Which results are given for O=c1c(O)c(-c2ccc(O)cc2)oc2cc(O)cc(O)c12 [Kaempferol, kaempferol]?
Answer: leishmanicidal activity [5]: showed leishmanicidal activity; leishmanicidal activity [6]: showed leishmanicidal activity

Question: For COC(=O)c1cc(O)c(O)c(O)c1 [Methyl galate, methyl gallate], which IC50 (L. mexicana) is on record?
Answer: 33.6 µM

Question: For C=C(C)[C@@H]1CC[C@]2(C(=O)O)CC[C@]3(C)[C@H](CC[C@@H]4[C@@]5(C)CC[C@H](O)C(C)(C)[C@@H]5CC[C@]43C)[C@@H]12 [betulinic acid], which antiprotozoal activity (Leishmania amazonensis) is on record?
Answer: No antiprotozoal activity

Question: What about the antiprotozoal activity (L. braziliensis) of the same compound?
Answer: No antiprotozoal activity

Question: With O=C(O)c1cc(O)c(O)c(O)c1 [gallic acid] as the compound, how does the NO-production [7] read?
Answer: modest NO-production

Question: What about the parasite viability [7] of the same compound?
Answer: did not reduce parasite viability

Question: With CCC(C)C(=O)NC1CCC(=O)N(CCc2ccccc2)C1=O (centres unmarked) [julocrotine] as the compound, how does the reduction in promastigotes [8] read?
Answer: 54%

Question: And the “reduction of amastigote form” value [9]?
Answer: 80%

Question: For CCCCCCCCCCCCCCCCOP(=O)([O-])OCC[N+](C)(C)C [miltefosine, reference compound], which IC50 (L. mexicana) is on record?
Answer: 0.5 µM

— paper PMC6332510, “Leishmanicidal Activity of (+)-Phyllanthidine and the Phytochemical Profile of Margaritaria nobilis (Phyllanthaceae)” (Molecules, 2015)
